Test results reported in patent US10738028B2, “Spiro three-membered ring, spiro five-membered ring peptide deformylase inhibitor and use thereof in antibacteria and anti-tumor” (priority 2016, dated 2020).
≈ marks a conversion by molar mass, not a printed value.

Tests used:
Type in all cases: cell-based
[1] = system: Enterococcus faecalis (EFA); assay: MIC, two-fold agar dilution (CLSI), clinical isolates
Excerpt: (§1) 1. The invention adopts the two-fold agar dilution method recommended by the operating procedure of antimicrobial susceptibility testing set by American Clinical and Laboratory Standards Institute (CLSI) to determine the Minimum Inhibitory Concentration (MIC) of the test samples against the tested strains.

[2] = system: Streptococcus pneoumoniae (SPN); assay: as above
Excerpt: as §1

[3] = system: methicillin-sensitive Staphylococcus aureus (MSSA); assay: as above
Excerpt: as §1

[4] = system: Moraxella catarrhalis (BCA); assay: as above
Excerpt: as §1

[5] = system: Escherichia coli (including ESBLs, non-ESBLs); assay: as above
Excerpt: as §1

[6] = system: methicillin-resistant Staphylococcus aureus (MRSA); assay: as above
Excerpt: as §1

[7] = system: methicillin-sensitive Staphylococcus epidermidis (MSSE); assay: as above
Excerpt: as §1

[8] = system: Enterococcus faecium (EFM); assay: as above
Excerpt: as §1

[9] = system: methicillin-resistant Staphylococcus epidermidis (MRSE); assay: as above
Excerpt: as §1

[10] = system: HCT-116 colorectal cancer cell line; assay: CCK-8 proliferation inhibition; details: Homo sapiens, HCT-116, 72 h, concentration of 30 μM; 72 hours; CCK-8; read-out: HCT116 inhibition rate/%
Experimental: (1) HCT-116 colorectal cancer cell line, A549 lung cancer cell line, MGC-803 gastric cancer cell line, BEL-7402 liver cancer cell line, Jurkat T cell leukemia cell line, HL60 acute myeloid leukemia cell line, Hela cervical cancer cell line, MCF-7 breast cancer cell line, PC3 prostate cancer cell line and SAOS-2 osteosarcoma cell line were made into single cell suspension, 180 μL of which was inoculated into 96-well culture plate, which was cultured overnight in CO2 incubator (37° C., 5% CO2, 95% air).
(2) Each of the spiro three-membered ring, spiro five membered ring peptide deformylase inhibitors was dissolved in DMSO, and was further formulated into drug solution with required different final concentration using corresponding cell culture medium. The drug solutions were added to the above cells respectively (20 μL/well), with the control group added with 1‰ DMSO, and cultured in a CO2 incubator for 72 hours.
(3) After incubation for 72 hours, the culture solution was decanted, and 100 μL of 1:10 diluted CCK-8 solution was added.
Wherein, in step (1), the concentration of the single cell suspension was 2000 cells/well.
Wherein, in step (2), HCT-116 cells were cultured in McCoy's 5A medium (containing 10% newborn bovine serum, 1% double antibody); A549 and PC3 cells were cultured in F12 medium (containing 10% newborn bovine serum, 1% double antibody); MGC-803, BEL-7402, SAOS-2, Jurkat and HL60 cells were cultured in 1640 medium (containing 10% newborn bovine serum, 1% double antibody); and MCF-7 and Hela cells were cultured in DMEM high glucose medium (containing 10% newborn bovine serum, 1% double antibody).

`CCCC[C@H](CN(O)C=O)C(=O)N1CC2(CC2)C[C@H]1C(=O)Nc1cnccn1` [Example 15] gave an MIC (anti-bacterial activity) ([1]; strain EFA 15-1) of 1 µg/mL (≈ 2.57 µM), an MIC (anti-bacterial activity) ([1]; strain EFA 15-2) of 1 µg/mL (≈ 2.57 µM) and an MIC (anti-bacterial activity) ([1]; strain EFA 15-3) of 1 µg/mL (≈ 2.57 µM). It also gave an MIC (anti-bacterial activity) ([1]; strain EFA 15-4) of 1 µg/mL (≈ 2.57 µM), an MIC (anti-bacterial activity) ([1]; strain EFA 15-5) of 4 µg/mL (≈ 10.3 µM) and an MIC (anti-bacterial activity) ([1]; strain EFA 15-6) of 4 µg/mL (≈ 10.3 µM). It also gave an MIC (anti-bacterial activity) ([1]; strain EFA 15-9) of 1 µg/mL (≈ 2.57 µM), an MIC (anti-bacterial activity) ([2]; strain SPN 16-2) of 0.015 µg/mL (≈ 0.0385 µM) and an MIC (anti-bacterial activity) ([2]; strain SPN 16-4) of 0.5 µg/mL (≈ 1.28 µM). The MIC (anti-bacterial activity) ([3]; strain MSSA 15-3) was 0.25 µg/mL (≈ 0.642 µM), the MIC (anti-bacterial activity) ([3]; strain MSSA 15-4) was 0.125 µg/mL (≈ 0.321 µM) and the MIC (anti-bacterial activity) ([3]; strain MSSA 15-5) was 0.125 µg/mL (≈ 0.321 µM). The MIC (anti-bacterial activity) ([3]; strain MSSA 15-6) was 0.125 µg/mL (≈ 0.321 µM), the MIC (anti-bacterial activity) ([4]; strain BCA 14-1) was 0.5 µg/mL (≈ 1.28 µM) and the MIC (anti-bacterial activity) ([4]; strain BCA 14-4) was 0.5 µg/mL (≈ 1.28 µM). The MIC (anti-bacterial activity) ([4]; strain BCA 14-5) was 0.125 µg/mL (≈ 0.321 µM), the MIC (anti-bacterial activity) ([4]; strain BCA 14-6) was 1 µg/mL (≈ 2.57 µM) and the MIC (anti-bacterial activity) ([4]; strain BCA 14-7) was 0.125 µg/mL (≈ 0.321 µM). For the same compound, the MIC (anti-bacterial activity) ([4]; strain BCA 14-8) was 0.5 µg/mL (≈ 1.28 µM), the MIC (anti-bacterial activity) ([4]; strain BCA 14-10) was 0.125 µg/mL (≈ 0.321 µM) and the MIC (anti-bacterial activity) ([5]; strain ECO+ 15-1) was 32 µg/mL (≈ 82.2 µM). For the same compound, the MIC (anti-bacterial activity) ([5]; strain ECO+ 15-2) was 64 µg/mL (≈ 164 µM), the MIC (anti-bacterial activity) ([5]; strain ECO+ 15-3) was 32 µg/mL (≈ 82.2 µM) and the MIC (anti-bacterial activity) ([5]; strain ECO+ 15-4) was 32 µg/mL (≈ 82.2 µM). It also gave an MIC (anti-bacterial activity) ([5]; strain ECO− 15-1) of 32 µg/mL (≈ 82.2 µM), an MIC (anti-bacterial activity) ([5]; strain ECO− 15-2) of 64 µg/mL (≈ 164 µM) and an MIC (anti-bacterial activity) ([5]; strain ECO− 15-3) of 64 µg/mL (≈ 164 µM). It also gave an MIC (anti-bacterial activity) ([5]; strain ECO− 15-4) of 64 µg/mL (≈ 164 µM), an MIC (anti-bacterial activity) ([6]; strain MRSA 15-1) of 0.125 µg/mL (≈ 0.321 µM) and an MIC (anti-bacterial activity) ([6]; strain MRSA 15-2) of 0.25 µg/mL (≈ 0.642 µM). It also gave an MIC (anti-bacterial activity) ([6]; strain MRSA 15-3) of 0.125 µg/mL (≈ 0.321 µM), an MIC (anti-bacterial activity) ([6]; strain MRSA 15-4) of 0.25 µg/mL (≈ 0.642 µM) and an MIC (anti-bacterial activity) ([7]; strain MSSE 15-3) of 0.25 µg/mL (≈ 0.642 µM). It also gave an MIC (anti-bacterial activity) ([7]; strain MSSE 15-4) of 0.06 µg/mL (≈ 0.154 µM), an MIC (anti-bacterial activity) ([7]; strain MSSE 15-5) of 0.06 µg/mL (≈ 0.154 µM) and an MIC (anti-bacterial activity) ([7]; strain MSSE 15-6) of 0.06 µg/mL (≈ 0.154 µM). For the same compound, the MIC (anti-bacterial activity) ([8]; strain EFM 15-1) was 1 µg/mL (≈ 2.57 µM), the MIC (anti-bacterial activity) ([8]; strain EFM 15-2) was 1 µg/mL (≈ 2.57 µM) and the MIC (anti-bacterial activity) ([8]; strain EFM 15-3) was 0.125 µg/mL (≈ 0.321 µM). The MIC (anti-bacterial activity) ([8]; strain EFM 15-4) was 1 µg/mL (≈ 2.57 µM), the MIC (anti-bacterial activity) ([8]; strain EFM 15-5) was 0.125 µg/mL (≈ 0.321 µM) and the MIC (anti-bacterial activity) ([8]; strain EFM 15-6) was 1 µg/mL (≈ 2.57 µM). It also gave an MIC (anti-bacterial activity) ([9]; strain MRSE 15-1) of 0.125 µg/mL (≈ 0.321 µM), an MIC (anti-bacterial activity) ([9]; strain MRSE 15-2) of 0.25 µg/mL (≈ 0.642 µM) and an MIC (anti-bacterial activity) ([9]; strain MRSE 15-3) of 0.25 µg/mL (≈ 0.642 µM). It also gave an MIC (anti-bacterial activity) ([9]; strain MRSE 15-7) of 0.25 µg/mL (≈ 0.642 µM) and an inhibition at 30 µM [10] of 24%.
For `CCCC[C@H](CN(O)C=O)C(=O)N1CC2(CC2)C[C@H]1C(=O)Nc1ccncn1` [Example 16, (S)-5-((R)-2-((N-hydroxyformamido)methyl)hexanoyl)-N-(pyrimidin-4-yl)-5-spiro[2.4]heptane-6-carboxamide], the MIC (anti-bacterial activity) ([1]; strain EFA 15-1) was 4 µg/mL (≈ 10.3 µM), the MIC (anti-bacterial activity) ([1]; strain EFA 15-2) was 4 µg/mL (≈ 10.3 µM) and the MIC (anti-bacterial activity) ([1]; strain EFA 15-3) was 0.25 µg/mL (≈ 0.642 µM). For the same compound, the MIC (anti-bacterial activity) ([1]; strain EFA 15-4) was 4 µg/mL (≈ 10.3 µM), the MIC (anti-bacterial activity) ([1]; strain EFA 15-5) was 4 µg/mL (≈ 10.3 µM) and the MIC (anti-bacterial activity) ([1]; strain EFA 15-6) was 4 µg/mL (≈ 10.3 µM). For the same compound, the MIC (anti-bacterial activity) ([1]; strain EFA 15-9) was 4 µg/mL (≈ 10.3 µM), the MIC (anti-bacterial activity) ([2]; strain SPN 16-2) was 4 µg/mL (≈ 10.3 µM) and the MIC (anti-bacterial activity) ([2]; strain SPN 16-4) was 0.25 µg/mL (≈ 0.642 µM). The MIC (anti-bacterial activity) ([3]; strain MSSA 15-3) was 1 µg/mL (≈ 2.57 µM), the MIC (anti-bacterial activity) ([3]; strain MSSA 15-4) was 0.25 µg/mL (≈ 0.642 µM) and the MIC (anti-bacterial activity) ([3]; strain MSSA 15-5) was 0.125 µg/mL (≈ 0.321 µM). It also gave an MIC (anti-bacterial activity) ([3]; strain MSSA 15-6) of 1 µg/mL (≈ 2.57 µM), an MIC (anti-bacterial activity) ([4]; strain BCA 14-1) of 0.5 µg/mL (≈ 1.28 µM) and an MIC (anti-bacterial activity) ([4]; strain BCA 14-4) of 1 µg/mL (≈ 2.57 µM). The MIC (anti-bacterial activity) ([4]; strain BCA 14-5) was 0.25 µg/mL (≈ 0.642 µM), the MIC (anti-bacterial activity) ([4]; strain BCA 14-6) was 1 µg/mL (≈ 2.57 µM) and the MIC (anti-bacterial activity) ([4]; strain BCA 14-7) was 0.25 µg/mL (≈ 0.642 µM). For the same compound, the MIC (anti-bacterial activity) ([4]; strain BCA 14-8) was 0.25 µg/mL (≈ 0.642 µM), the MIC (anti-bacterial activity) ([4]; strain BCA 14-10) was 0.25 µg/mL (≈ 0.642 µM) and the MIC (anti-bacterial activity) ([5]; strain ECO+ 15-1) was 32 µg/mL (≈ 82.2 µM). For the same compound, the MIC (anti-bacterial activity) ([5]; strain ECO+ 15-2) was greater than 32 µg/mL, the MIC (anti-bacterial activity) ([5]; strain ECO+ 15-3) was greater than 32 µg/mL and the MIC (anti-bacterial activity) ([5]; strain ECO+ 15-4) was greater than 32 µg/mL. It also gave an MIC (anti-bacterial activity) ([5]; strain ECO− 15-1) of 32 µg/mL (≈ 82.2 µM), an MIC (anti-bacterial activity) ([5]; strain ECO− 15-2) greater than 32 µg/mL and an MIC (anti-bacterial activity) ([5]; strain ECO− 15-3) greater than 32 µg/mL. For the same compound, the MIC (anti-bacterial activity) ([5]; strain ECO− 15-4) was greater than 32 µg/mL, the MIC (anti-bacterial activity) ([6]; strain MRSA 15-1) was 0.06 µg/mL (≈ 0.154 µM) and the MIC (anti-bacterial activity) ([6]; strain MRSA 15-2) was 0.25 µg/mL (≈ 0.642 µM). For the same compound, the MIC (anti-bacterial activity) ([6]; strain MRSA 15-3) was 0.25 µg/mL (≈ 0.642 µM), the MIC (anti-bacterial activity) ([6]; strain MRSA 15-4) was 1 µg/mL (≈ 2.57 µM) and the MIC (anti-bacterial activity) ([7]; strain MSSE 15-3) was 1 µg/mL (≈ 2.57 µM). The MIC (anti-bacterial activity) ([7]; strain MSSE 15-4) was 0.06 µg/mL (≈ 0.154 µM), the MIC (anti-bacterial activity) ([7]; strain MSSE 15-5) was 0.06 µg/mL (≈ 0.154 µM) and the MIC (anti-bacterial activity) ([7]; strain MSSE 15-6) was 0.06 µg/mL (≈ 0.154 µM). It also gave an MIC (anti-bacterial activity) ([8]; strain EFM 15-1) of 0.5 µg/mL (≈ 1.28 µM), an MIC (anti-bacterial activity) ([8]; strain EFM 15-2) of 1 µg/mL (≈ 2.57 µM) and an MIC (anti-bacterial activity) ([8]; strain EFM 15-3) of 0.25 µg/mL (≈ 0.642 µM). It also gave an MIC (anti-bacterial activity) ([8]; strain EFM 15-4) of 2 µg/mL (≈ 5.14 µM), an MIC (anti-bacterial activity) ([8]; strain EFM 15-5) of 0.25 µg/mL (≈ 0.642 µM) and an MIC (anti-bacterial activity) ([8]; strain EFM 15-6) of 2 µg/mL (≈ 5.14 µM). For the same compound, the MIC (anti-bacterial activity) ([9]; strain MRSE 15-1) was 0.06 µg/mL (≈ 0.154 µM), the MIC (anti-bacterial activity) ([9]; strain MRSE 15-2) was 1 µg/mL (≈ 2.57 µM) and the MIC (anti-bacterial activity) ([9]; strain MRSE 15-3) was 0.25 µg/mL (≈ 0.642 µM). For the same compound, the MIC (anti-bacterial activity) ([9]; strain MRSE 15-7) was 0.25 µg/mL (≈ 0.642 µM) and the inhibition at 30 µM [10] was 24%.
